Consider 19 substances from PMC11335189, “Revealing molecular determinants governing mambalgin-3 pharmacology at acid-sensing ion channel 1 variants” (Cellular and Molecular Life Sciences: CMLS, 2024).

Read-outs that look alike come from different tables or passages of the source. Positions of bridges follow the written chain, without caps; N, C: chain ends. No end group written: not given here.

One test concerns the target T1, hASIC1b (Homo sapiens, UniProt P78348).
T1 construct: expressed in transfected cells; host or cells: Xenopus laevis oocytes (cRNA injection)
T1 sequence (P78348 1-562 isoform P78348-3): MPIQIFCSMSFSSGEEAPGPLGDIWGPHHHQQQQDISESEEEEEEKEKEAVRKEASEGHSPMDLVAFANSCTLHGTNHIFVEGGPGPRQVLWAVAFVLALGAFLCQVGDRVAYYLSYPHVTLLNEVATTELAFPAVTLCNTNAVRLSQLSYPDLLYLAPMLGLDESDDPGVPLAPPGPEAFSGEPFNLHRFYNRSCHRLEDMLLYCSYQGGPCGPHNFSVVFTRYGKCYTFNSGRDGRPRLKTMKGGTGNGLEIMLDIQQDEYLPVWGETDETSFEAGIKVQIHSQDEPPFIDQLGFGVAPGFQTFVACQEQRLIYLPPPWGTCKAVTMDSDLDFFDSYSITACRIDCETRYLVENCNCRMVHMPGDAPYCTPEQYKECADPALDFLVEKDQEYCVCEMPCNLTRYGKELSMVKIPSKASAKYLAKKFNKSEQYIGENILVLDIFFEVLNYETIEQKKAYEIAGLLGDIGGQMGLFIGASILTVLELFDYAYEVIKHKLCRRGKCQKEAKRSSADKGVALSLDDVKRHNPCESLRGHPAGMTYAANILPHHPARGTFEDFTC
As to the kind of experiment: TEVC in Xenopus laevis oocytes expressing hASIC1b. Particulars: for remaining activity at 1 µM: 1 µM peptide, conditioning pH 7.45, mean, n ≥ 5, read-out: I/Icontrol. It counts as cell-based. The procedure: (§1) Two-electrode voltage-clamp (TEVC) experiments using Xenopus laevis oocytes were conducted as previously described. Briefly, oocytes were surgically removed from anaesthetised female frogs, then treated with collagenase (~ 1 mg/ml, Sigma type I) for 2 h under agitation at room temperature. cRNAs were synthesised using a mMessage mMachine T7 or SP6 transcription kit (Thermo Fisher Scientific Australia Pty Ltd, Scoresby, VIC, Australia) and injected into healthy stage V–VI oocytes at 0.2–20 ng per cell. Different amounts of RNA were used for different wild-type and mutant constructs, as well as to titrate expression levels to record over multiple days and maintaining consistent expression levels. Injected oocytes were incubated at 17 °C for 1–7 days in 50% Leibovitz’s L-15 medium (Gibco, Thermo Fisher Scientific Australia Pty Ltd, Scoresby, VIC, Australia), supplemented with 25 µg/mL gentamicin, 25 µg/mL streptomycin, and 2.5% fetal horse serum. Membrane currents were recorded 2–7 days after cRNA-injection under voltage-clamp at -60 mV (Axon Axoclamp 900 A, Molecular Devices, CA, USA) using two standard glass microelectrodes of 0.5–1 MΩ resistance when filled with 3 M KCl solution. Data were sampled at 2 kHz and filtered at 0.1 kHz using Clampex 10 software (Molecular Devices, CA, USA). A microperfusion system was used to allow fast extracellular solution exchange (bath volume = ~ 30 µL). All experiments were performed at room temperature (18–23 °C) in ND96 (96 mM NaCl, 2 mM KCl, 1.8 mM CaCl2, 2 mM MgCl2, 5 mM HEPES, pH 7.45). In solutions below pH 6.8, HEPES was replaced by MES. All solutions containing peptides contained 0.05% fatty acid free bovine serum albumin to decrease adsorptive losses of peptide to plasticware. For all channels tested, control current magnitudes between 500 and 9000 nA when tested using a conditioning pH of 7.45 and stimulating pH of 6 (except for the chimeras that were stimulated with pH 5) were used for data collection. Before recording any experiments, oocytes were stimulated multiple times with low pH to minimise and stabilise tachyphylaxis/desensitisation, which were then accounted for during analysis. Complete recovery of currents from Ma-3 induced modulation within 3 min of washout at all channels tested allowed for correction for tachyphylaxis/desensitisation during analyses.
(§2) Specific to this work, the standard protocol was for oocytes to be conditioned at pH 7.45 and channels stimulated every 60 s using a 5 s pH 5 or 6 application, unless stated otherwise. For all concentration-response data, peptides were applied for ~ 50 s between each low pH stimulus application. Activation curves were determined by conditioning oocytes at pH 8 (Fig. 2e − g; and Fig. 5a and b) or 7.45 (Fig. 6; and Supplementary Fig. 2d and c) for 55 s and applying low pH stimuli from 7.25 to 5.0 for 5 s. Steady-state desensitisation (SSD) was determined by applying conditioning solutions of pH values from 8 to 6 for 115 s prior to stimulation by a pH drop to 5 for 5 s. Ma-3 was only applied in the conditioning solution for activation and steady-state desensitisation curves in the presence of peptide. Control pH-dependence curves were determined in the absence of any Ma-3. When assessing the effect of Ma-3 on the rASIC1a: ASIC1b chimeras (C92 and C166; and for the comparative wild-type data), the conditioning pH was 7.45 and stimulating pH 5 (Fig. 3b). Specific details of the conditioning and stimulating pH are noted in each figure legend.
(§3) Data were analysed using pCLAMP-Clampfit software (Version 11, Molecular Devices, CA, USA) and GraphPad Prism 9.5 and 10.2.2 (GraphPad Software, San Diego, CA, USA). To obtain the Hill coefficient (nH) and half-maximal response (EC50, IC50, or pH50) the Hill equation was fitted to normalised concentration-response curves by using a non-linear fit to the data of a four-parameter logistic equation (“sigmoidal dose-response” in GraphPad Prism 9.5). […]

In the next test the target is T2, rASIC1a (Rattus norvegicus, UniProt P55926).
T2 construct: expressed in transfected cells; host or cells: Xenopus laevis oocytes (cRNA injection)
T2 sequence (P55926 1-526): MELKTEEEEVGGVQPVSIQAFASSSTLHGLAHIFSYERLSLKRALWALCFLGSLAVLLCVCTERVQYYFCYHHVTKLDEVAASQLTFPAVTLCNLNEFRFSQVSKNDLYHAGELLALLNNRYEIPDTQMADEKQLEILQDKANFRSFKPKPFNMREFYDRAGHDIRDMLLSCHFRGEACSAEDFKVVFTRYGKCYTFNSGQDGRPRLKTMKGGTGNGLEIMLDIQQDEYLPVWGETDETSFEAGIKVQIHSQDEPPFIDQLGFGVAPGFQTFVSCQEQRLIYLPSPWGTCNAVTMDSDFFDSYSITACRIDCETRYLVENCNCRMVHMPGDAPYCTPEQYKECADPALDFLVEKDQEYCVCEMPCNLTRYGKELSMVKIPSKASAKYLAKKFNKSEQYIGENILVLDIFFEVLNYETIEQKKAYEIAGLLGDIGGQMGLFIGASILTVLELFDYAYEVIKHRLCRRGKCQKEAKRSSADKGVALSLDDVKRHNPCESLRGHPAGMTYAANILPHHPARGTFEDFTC
Description: TEVC in Xenopus laevis oocytes expressing rASIC1a. The following applies: peptides applied at pH 7.45, stimulated at pH 6. It counts as cell-based. The procedure:
as §1, §2, §3

With “H-SLKCYQAGKVVTCHRDMKFCYHNIGMPFRNLKLILQGCSSSCSETENNKCCSTDRCNK (disulfide 4-20, 13-38, 42-50, 51-56 (inferred)) [H6A]”, the values for the remaining activity at 1 µM on hASIC1b (pH 5 evoked currents) and at hASIC1b (pH 6 evoked currents) were 98% and 103%, respectively. The “increase in IC50 (loss of potency) relative to wild-type Ma-3” value at rASIC1a is given as “greater than 10 fold”.

On to “H-SLKCYQHGKVVTCARDMKFCYHNIGMPFRNLKLILQGCSSSCSETENNKCCSTDRCNK (disulfide 4-20, 13-38, 42-50, 51-56 (inferred)) [H13A]”, for which the remaining activity at 1 µM at hASIC1b (pH 5 evoked currents) was found to be 74%; at hASIC1b (pH 6 evoked currents) it was 142%.

For the substance “H-SLKCYQHGKVVTCHADMKFCYHNIGMPFRNLKLILQGCSSSCSETENNKCCSTDRCNK (disulfide 4-20, 13-38, 42-50, 51-56 (inferred)) [R14A]”, the values for the remaining activity at 1 µM on hASIC1b (pH 5 evoked currents) and on hASIC1b (pH 6 evoked currents) were 77% and 157%, respectively.

Take “H-SLKCYQHGKVVTCHRDMKFCYHNAGMPFRNLKLILQGCSSSCSETENNKCCSTDRCNK (disulfide 4-20, 13-38, 42-50, 51-56 (inferred)) [I23A]”: the values for the remaining activity at 1 µM at hASIC1b (pH 5 evoked currents) and on hASIC1b (pH 6 evoked currents) were 67% and 159%, respectively.

As to “H-SLKCYQHGKVVTCHRDMKFCYHNIGMPARNLKLILQGCSSSCSETENNKCCSTDRCNK (disulfide 4-20, 13-38, 42-50, 51-56 (inferred)) [F27A]”, the results for the remaining activity at 1 µM at hASIC1b (pH 5 evoked currents) and at hASIC1b (pH 6 evoked currents) were 96% and 111%, respectively. The “increase in IC50 (loss of potency) relative to wild-type Ma-3” value on rASIC1a is listed as “greater than 10 fold”.

With “H-SLKCYQHGKVVTCHRDMKFCYHNIGMPFANLKLILQGCSSSCSETENNKCCSTDRCNK (disulfide 4-20, 13-38, 42-50, 51-56 (inferred)) [R28A]”, the remaining activity at 1 µM on hASIC1b (pH 5 evoked currents) amounted to 97%; on hASIC1b (pH 6 evoked currents), 118%. For the same substance, on rASIC1a, the “increase in IC50 (loss of potency) relative to wild-type Ma-3” value is reported as “greater than 10 fold”.

For “H-SLKCYQHGKVVTCHRDMKFCYHNIGMPFRALKLILQGCSSSCSETENNKCCSTDRCNK (disulfide 4-20, 13-38, 42-50, 51-56 (inferred)) [N29A]”, the values for the remaining activity at 1 µM at hASIC1b (pH 5 evoked currents) and at hASIC1b (pH 6 evoked currents) were 76% and 171%, respectively.

Regarding “H-SLKCYQHGKVVTCHRDMKFCYHNIGMPFRNAKLILQGCSSSCSETENNKCCSTDRCNK (disulfide 4-20, 13-38, 42-50, 51-56 (inferred)) [L30A]”, the values for the remaining activity at 1 µM at hASIC1b (pH 5 evoked currents) and at hASIC1b (pH 6 evoked currents) were 116% and 172%, respectively.

With “H-SLKCYQHGKVVTCHRDMKFCYHNIGMPFRNLALILQGCSSSCSETENNKCCSTDRCNK (disulfide 4-20, 13-38, 42-50, 51-56 (inferred)) [K31A]”, the remaining activity at 1 µM on hASIC1b (pH 5 evoked currents) was found to be 94%; on hASIC1b (pH 6 evoked currents), 140%.

Consider “H-SLKCYQHGKVVTCHRDMKFCYHNIGMPFRNLKAILQGCSSSCSETENNKCCSTDRCNK (disulfide 4-20, 13-38, 42-50, 51-56 (inferred)) [L32A]”, for which the remaining activity at 1 µM worked out at 96% at hASIC1b (pH 5 evoked currents) and 100% on hASIC1b (pH 6 evoked currents). Moreover, on rASIC1a, the “increase in IC50 (loss of potency) relative to wild-type Ma-3” value was “greater than 10 fold”.

As for “H-SLKCYQHGKVVTCHRDMKFCYHNIGMPFRNLKLALQGCSSSCSETENNKCCSTDRCNK (disulfide 4-20, 13-38, 42-50, 51-56 (inferred)) [I33A]”, the figures for the remaining activity at 1 µM on hASIC1b (pH 5 evoked currents) and on hASIC1b (pH 6 evoked currents) were 100% and 133%, respectively. Moreover, the “increase in IC50 (loss of potency) relative to wild-type Ma-3” value at rASIC1a is on record as “greater than 10 fold”.

For the substance “H-SLKCYQHGKVVTCHRDMKFCYHNIGMPFRNLKLIAQGCSSSCSETENNKCCSTDRCNK (disulfide 4-20, 13-38, 42-50, 51-56 (inferred)) [L34A]”, the remaining activity at 1 µM on hASIC1b (pH 5 evoked currents) amounted to 98%; at hASIC1b (pH 6 evoked currents), 116%. On rASIC1a, the “increase in IC50 (loss of potency) relative to wild-type Ma-3” value is “greater than 10 fold”.

As for “H-SLKCYQHGKVVTCHRDMKFCYHNIGMPFRNLKLILAGCSSSCSETENNKCCSTDRCNK (disulfide 4-20, 13-38, 42-50, 51-56 (inferred)) [Q35A]”, the remaining activity at 1 µM on hASIC1b (pH 5 evoked currents) turned out to be 71%; at hASIC1b (pH 6 evoked currents) it was 168%.

In the case of “H-SLKCYQHGKVVTCHRDMKFCYHNIGMPFRNLKLILQGCSAACSETENNKCCSTDRCNK (disulfide 4-20, 13-38, 42-50, 51-56 (inferred)) [S39A/S40A]”, the remaining activity at 1 µM on hASIC1b (pH 5 evoked currents) was determined as 71%; on hASIC1b (pH 6 evoked currents), 165%.

As for “H-SLKCYQHGKVVTCHRDMKFCYHNIGMPFRNLKLILQGCSSSCSETANNKCCSTDRCNK (disulfide 4-20, 13-38, 42-50, 51-56 (inferred)) [E45A]”, the remaining activity at 1 µM came to 68% on hASIC1b (pH 5 evoked currents) and 163% on hASIC1b (pH 6 evoked currents).

In the case of “H-SLKCYQHGKVVTCHRDMKFCYHNIGMPFRNLKLILQGCSSSCSETENNACCSTDRCNK (disulfide 4-20, 13-38, 42-50, 51-56 (inferred)) [K48A]”, the values for the remaining activity at 1 µM on hASIC1b (pH 5 evoked currents) and at hASIC1b (pH 6 evoked currents) were 70% and 154%, respectively.

“H-SLKCYQHGKVVTCHRDMKFCYHNIGMPFRNLKLILQGCSSSCSETENNKCCSTDACNK (disulfide 4-20, 13-38, 42-50, 51-56 (inferred)) [R54A]”: the remaining activity at 1 µM on hASIC1b (pH 5 evoked currents) is 79%; at hASIC1b (pH 6 evoked currents), 145%.

Turning to “H-SLKCYQHGKVVTCHRDMKFCYHNIGMPFRNLKLILQGCSSSCSETENNKCCSTDRCNA (disulfide 4-20, 13-38, 42-50, 51-56 (inferred)) [K57A]”, the remaining activity at 1 µM at hASIC1b (pH 5 evoked currents) stood at 73%; at hASIC1b (pH 6 evoked currents), 147%.

As for “LKCYQHGKVVTCHRDMKFCYHNTGMPFRNLKLILQGCSSSCSETENNKCCSTDRCNK (disulfide 3-19, 12-37, 41-49, 50-55) [Ma-1, reference compound]”, the “Hill slope (95% CI)” value on hASIC1b (conditioning pH 7.45, pH 6 evoked currents, potentiation, 95% CI) is listed as 0.73–2.56.
